This note sets out measurements from patent publication US20250092065A1, “2-(INDAZOL-5-YL)-6-(PIPERIDIN-4-YL)-1,7-NAPHTHYRIDINE DERIVATIVES AND RELATED COMPOUNDS AS MODULATORS FOR SPLICING NUCLEIC ACIDS AND FOR THE TREATMENT OF PROLIFERATIVE DISEASES” (REMIX THERAPEUTICS INC., priority 2022, published 2025).

A value given as a limit tells only on which side of the number the result lay.

This test concerns Target C. Description: RT-qPCR canonical junction panel assay, Target C mRNA. Format: cell-based. As to conditions: Table 4, read-out: Target C IC50 (decrease in CJ mRNA levels). Summed up:
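IC50 is the concentration giving 50% CJ decrease, from a 4-parameter logistic fit of percent response; response derived from ΔΔCt against housekeeper and DMSO over a fixed ΔCt window, with canonical exon-junction qPCR in compound-treated K562 or A673 cells.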
Background: Quantitative PCR measures a nucleic acid by following its amplification.
On to `CC(C)(C)NC1CCN(c2ccc3nc(-c4cc5oc(C6CC6)nc5cc4O)ccc3n2)C1` (stereo not shown) [Compound 333, 6-{6-[3-(tert-butylamino)pyrrolidin-1-yl]-1,5-naphthyridin-2-yl}-2-cyclopropyl-1,3-benzoxazol-5-ol], for which the IC50 lay in the range of 100 to 1000 nM.
The same measure for `COCc1nc2cc(O)c(-c3ccc4nc(N5CCC(NC(C)(C)C)C5)ccc4n3)cc2o1` (stereo not shown) [Compound 334, 6-{6-[3-(tert-butylamino)pyrrolidin-1-yl]-1,5-naphthyridin-2-yl}-2-(methoxymethyl)-1,3-benzoxazol-5-ol]: 100 to 1000 nM.
The value for `COc1cc2nc(C3COC3)oc2cc1-c1ccc2nc(N3CCC(NC(C)(C)C)C3)ccc2n1` (stereo not shown) [Compound 335] was 1000 to 10000 nM.
The same measure for `CC(C)(C)NC1CCN(c2ccc3nc(-c4cc5oc(CO)nc5cc4O)ccc3n2)C1` (stereo not shown) [Compound 336, 6-{6-[3-(tert-butylamino)pyrrolidin-1-yl]-1,5-naphthyridin-2-yl}-2-(hydroxymethyl)-1,3-benzoxazol-5-ol]: 100 to 1000 nM; for `CNC1CCN(c2ccc3nc(-c4cc5cn(C)nc5c(C)c4O)ncc3n2)C1` (stereo not shown) [Compound 337, 2,7-dimethyl-5-{6-[3-(methylamino)pyrrolidin-1-yl]pyrido[3,2-d]pyrimidin-2-yl}indazol-6-ol]: over 10000 nM.
With `Cc1c(O)c(-c2ncc3nc(N4CCNCC4)ccc3n2)cc2cn(C)nc12` [Compound 338, 2,7-dimethyl-5-[6-(piperazin-1-yl)pyrido[3,2-d]pyrimidin-2-yl]indazol-6-ol], the IC50 is 1000 to 10000 nM.
The same measure for `Cc1nc2cc(O)c(-c3ccc4nc(N5CCC(NC(C)(C)C)C5)ccc4n3)cc2n1C` (stereo not shown) [Compound 339, 6-{6-[3-(tert-butylamino)pyrrolidin-1-yl]-1,5-naphthyridin-2-yl}-1,2-dimethyl-1,3-benzodiazol-5-ol]: 100 to 1000 nM.
Turning to `Cc1nc2cc(-c3ccc4nc(N5CCC(NC(C)(C)C)C5)ccc4n3)c(O)cc2n1C` (stereo not shown) [Compound 340, 6-{6-[3-(tert-butylamino)pyrrolidin-1-yl]-1,5-naphthyridin-2-yl}-2,3-dimethyl-1,3-benzodiazol-5-ol], the IC50 lay within 100 to 1000 nM.
The same measure for `Cn1cc2cc(-c3ccc4nc(N5CCC(NC67CC(O)(C6)C7)C5)ccc4n3)c(O)cc2n1` (stereo not shown) [Compound 341, 5-{6-[3-({3-hydroxybicyclo[1.1.1]pentan-1-yl}amino)pyrrolidin-1-yl]-1,5-naphthyridin-2-yl}-2-methylindazol-6-ol]: 100 to 1000 nM; for `Cc1c(O)c(-c2ncc3nc(N4CCC5(CCN5)C4)ccc3n2)cc2cn(C)nc12` (stereo not shown) [Compound 342, 5-(6-{1,6-diazaspiro[3.4]octan-6-yl}pyrido[3,2-d]pyrimidin-2-yl)-2,7-dimethylindazol-6-ol]: 100 to 1000 nM.
The value for `Cc1cc2nc(-c3ccc4nc(N5CCC(NC(C)(C)C)C5)ccc4n3)cn2c(C)n1` (stereo not shown) [Compound 344, N-tert-butyl-1-(6-{5,7-dimethylimidazo[1,2-c]pyrimidin-2-yl}-1,5-naphthyridin-2-yl)pyrrolidin-3-amine] was over 10000 nM; that for `CCc1nc2cc(O)c(-c3ccc4nc(N5CCC(NC(C)(C)C)C5)ccc4n3)cc2o1` (stereo not shown) [Compound 346, 6-{6-[3-(tert-butylamino)pyrrolidin-1-yl]-1,5-naphthyridin-2-yl}-2-ethyl-1,3-benzoxazol-5-ol] was 1000 to 10000 nM.
Turning to `Cc1nc2cc(O)c(-c3ccc4nc(N5CC[C@H](N[C@H]6C[C@H](F)C6)C5)ccc4n3)cc2o1` [Compound 350, 2-methyl-6-{6-[(3S)-3-{[(1r,3r)-3-fluorocyclobutyl]amino}pyrrolidin-1-yl]-1,5-naphthyridin-2-yl}-1,3-benzoxazol-5-ol], the 50% inhibitory concentration (IC50) lay in the range of 100 to 1000 nM.

Broadly, the IC50 is the midpoint of a concentration-inhibition curve.
